The text below walks through data of ChEMBL document CHEMBL1144587, “Synthesis and antiviral activity of C-fluoro-branched cyclopropyl nucleosides” (Eur J Med Chem, 2007).

Common to all, as to format: functional, organism-based
The subject of assay [1] is Human immunodeficiency virus 1. In words: Antiviral activity against HIV1 in MT4 cells. As to conditions: Human immunodeficiency virus 1, MT4.
In assay [2] the test system is Human alphaherpesvirus 2. In words: Antiviral activity against HSV2 in CCL81 cells. The conditions noted are these: Human alphaherpesvirus 2, CCL 81.
In assay [3] the test system is Human alphaherpesvirus 1. In words: Antiviral activity against HSV1 in CCL81 cells. The conditions noted are these: Human alphaherpesvirus 1, CCL 81.
Assay [4] concerns Human betaherpesvirus 5. In words: Antiviral activity against HCMV AD169. The conditions noted are these: Human betaherpesvirus 5, AD169.

SMILES strings stand for the structures.

The EC50 is the midpoint of the concentration-response curve. Lower therefore signals an effect from little substance. Take `C[C@]1(CO)C[C@]1(F)n1ccc(N)nc1=O` (racemic): the EC50 in assay [1], in assay [2], in assay [3] and in assay [4] was above 100 µM in each case.
With `C[C@]1(CO)C[C@@]1(F)n1ccc(=O)[nH]c1=O` (racemic), the EC50 in assay [1] is above 100 µM; in assay [2] it was above 100 µM; in assay [3], above 100 µM; in assay [4], 43 µM.
For the compound `Cc1cn([C@]2(F)C[C@]2(C)CO)c(=O)[nH]c1=O` (racemic), the half-maximal effective concentration (EC50) in assay [1] was 35 µM; in assay [2], above 100 µM; in assay [3] it was above 100 µM; in assay [4], above 100 µM.
Turning to `Cc1cn([C@@]2(F)C[C@]2(C)CO)c(=O)[nH]c1=O` (racemic), the concentration giving a half-maximal response (EC50) in assay [1] is 89 µM; in assay [2], above 100 µM; in assay [3], above 100 µM; in assay [4], 51.4 µM.
As to `C[C@]1(CO)C[C@]1(F)n1cnc2c(N)ncnc21` (racemic), the EC50 in assay [1] is above 100 µM; in assay [2], above 100 µM; in assay [3], 67 µM; in assay [4] it was 71 µM.
As to `C[C@]1(CO)C[C@@]1(F)n1cnc2c(N)ncnc21` (racemic), the EC50 was above 100 µM in assay [1], above 100 µM in assay [2], 87 µM in assay [3] and above 100 µM in assay [4].
Consider `C[C@]1(CO)C[C@@]1(F)n1ccc(N)nc1=O` (racemic), for which the EC50 in assay [1] was 65 µM; in assay [2] it was above 100 µM; in assay [3] it was above 100 µM; in assay [4] it was above 100 µM.
For the compound `C[C@]1(CO)C[C@]1(F)n1ccc(=O)[nH]c1=O` (racemic), the EC50 in assay [1] was 19.4 µM; in assay [2], above 100 µM; in assay [3] it was above 100 µM; in assay [4], 10.6 µM.
With `Nc1nc2c(ncn2COC(CO)CO)c(=O)[nH]1` [GANCICLOVIR], the EC50 in assay [2] was determined as 1.5 µM; in assay [3], 1.5 µM; in assay [4], 1.01 µM.
Compound `Cc1cn([C@H]2C[C@H](N=[N+]=[N-])[C@@H](CO)O2)c(=O)[nH]c1=O` [ZIDOVUDINE] displayed an EC50 in assay [1] of 0.0008 µM.
